pIC50, pKi: −log10 of the molar value. Calls of active or inactive are those of the source. The rule behind the calls is not given here.
target: not listed separately; experiment: Non-competitive inhibition of Saccharomyces cerevisiae alpha-glucosidase pre-incubated for 15 mins before p-nitrophenyl-alpha-D-glucopyranoside substrate addition and measured after 30 mins by UV spectrometry based Dixon plot

| pKi | SMILES |
| --- | --- |
| 4.88 | CCOC(=O)c1ccc(N2CCN(Cc3c(O)cc4c(c3O)C(=O)CC(c3ccc(O)cc3)O4)CC2)cc1 (configuration not stated) |
| 4.42 | O=C1CC(c2ccc(O)cc2)Oc2cc(O)c(CN3CCc4ccccc4C3)c(O)c21 (configuration not stated) |

target: not listed separately; experiment: Inhibition of Saccharomyces cerevisiae alpha-glucosidase pre-incubated for 15 mins before p-nitrophenyl-alpha-D-glucopyranoside substrate addition and measured after 30 mins by UV spectrometry

| pIC50 | SMILES |
| --- | --- |
| < 3.30 | Oc1ccc(C2CCc3c(O)cc(O)c(C4CCCCN4)c3O2)cc1 (configuration not stated) |
| < 3.30 | O=c1cc(-c2ccccc2)oc2c(CN3CCN(CCO)CC3)c(O)cc(O)c12 |
| 3.53 | O=c1cc(-c2ccc(O)cc2)oc2cc(O)c(C3CCCCN3)c(O)c12 (configuration not stated) |
| < 3.30 | COc1ccc(-c2coc3c(CN4CCCCC4)c(O)ccc3c2=O)cc1 |
| 3.28 | O=C1CC(c2ccc(O)cc2)Oc2cc(O)c(CN3CCN(CCO)CC3)c(O)c21 (configuration not stated) |
| 4.19 | CCOC(=O)N1CCN(Cc2c(O)cc3c(c2O)C(=O)CC(c2ccc(O)cc2)O3)CC1 (configuration not stated) |
| < 3.30 | COc1ccc(C2CC(=O)c3c(cc(O)c(C4CCCCN4)c3O)O2)cc1O (configuration not stated) |
| < 3.30 | O=c1cc(-c2ccccc2)oc2cc(O)c(C3CCCCN3)c(O)c12 (configuration not stated) |
| < 3.30 | O=c1cc(-c2ccccc2)oc2c(C3CCCCN3)c(O)cc(O)c12 (configuration not stated) |
| < 3.30 | O=C1c2c(cc(O)c(C3CCCCN3)c2O)OC(c2ccc(O)c(O)c2)C1O (configuration not stated) |
| < 3.30 | CCOC(=O)N1CCN(Cc2c(O)cc3oc(-c4ccccc4)cc(=O)c3c2O)CC1 |
| 3.69 | O=C1CC(c2ccc(O)cc2)Oc2cc(O)c(CN3CCOCC3)c(O)c21 (configuration not stated) |
| 4.08 | O=C1CC(c2ccc(O)cc2)Oc2cc(O)c(CN3CCCCC3)c(O)c21 (configuration not stated) |
| < 3.30 | O=c1cc(-c2ccccc2)oc2cc(O)c(CN3CCN(CCO)CC3)c(O)c12 |
| 5.39 | CCOC(=O)c1ccc(N2CCN(Cc3c(O)cc4c(c3O)C(=O)CC(c3ccc(O)cc3)O4)CC2)cc1 (configuration not stated) |
| < 3.30 | O=c1cc(-c2ccccc2)oc2cc(O)c(CN3CCCCC3)c(O)c12 |
| 4.63 | O=C1CC(c2ccc(O)cc2)Oc2cc(O)c(CN3CCc4ccccc4C3)c(O)c21 (configuration not stated) |
| < 3.30 | CCOC(=O)N1CCN(Cc2c(O)c(CN3CCN(C(=O)OCC)CC3)c3oc(-c4ccccc4)cc(=O)c3c2O)CC1 |
| < 3.30 | O=c1cc(-c2ccccc2)oc2cc(O)c(CN3CCc4ccccc4C3)c(O)c12 |
| 3.66 | CCN(CC)Cc1c(O)cc2oc(-c3ccccc3)cc(=O)c2c1O |
| < 3.30 | Oc1ccc(C2CCc3c(cc(O)c(C4CCCCN4)c3O)O2)cc1 (configuration not stated) |
| < 3.30 | O=c1cc(-c2ccccc2)oc2cc(O)c(CN3CCOCC3)c(O)c12 |
| 3.60 | O=C1CC(c2ccc(O)cc2)Oc2cc(O)c(C3CCCCN3)c(O)c21 (configuration not stated) |

system: Saccharomyces cerevisiae; experiment: Non-competitive inhibition of Saccharomyces cerevisiae alpha-glucosidase pre-incubated for 15 mins before p-nitrophenyl-alpha-D-glucopyranoside substrate addition and measured after 30 mins by UV spectrometry based Lineweaver-Burk plot

| inhibition | SMILES |
| --- | --- |
| Active | CCOC(=O)c1ccc(N2CCN(Cc3c(O)cc4c(c3O)C(=O)CC(c3ccc(O)cc3)O4)CC2)cc1 (configuration not stated) |
| Active | O=C1CC(c2ccc(O)cc2)Oc2cc(O)c(CN3CCc4ccccc4C3)c(O)c21 (configuration not stated) |
